Results from ChEMBL document CHEMBL1201862, “PubChem BioAssay data set” (2004).
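How tested: cells in 96-well plates exposed to compound for 48 hours at five concentrations. At the GI50, growth is halved.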 The source made the active and inactive calls. No stated cut-off is given here; in the data, active = GI50 up to about 1.1 µM and inactive = higher.

Experiments:
Assay in all cases: NCI-60 cell line screen, 48 h
786-0 = tested on: 786-0
A549 = tested on: A549
EKVX = tested on: EKVX
HCC 2998 = tested on: HCC 2998
HCT-116 = tested on: HCT-116
HCT-15 = tested on: HCT-15
HL-60 = tested on: HL-60
HOP-92 = tested on: HOP-92
HT-29 = tested on: HT-29
K562 = tested on: K562
LOX IMVI = tested on: LOX IMVI
M14 = tested on: M14
NCI-H23 = tested on: NCI-H23
NCI-H522 = tested on: NCI-H522
SF-268 = tested on: SF-268
SF-539 = tested on: SF-539
SW-620 = tested on: SW-620
UACC-257 = tested on: UACC-257
NCI/ADR-RES = tested on: NCI/ADR-RES
T47D = tested on: T47D

Row | SMILES | GI50 (786-0) | GI50 (A549) | GI50 (EKVX) | GI50 (HCC 2998) | GI50 (HCT-116) | GI50 (HCT-15) | GI50 (HL-60) | GI50 (HOP-92) | GI50 (HT-29) | GI50 (K562) | GI50 (LOX IMVI) | GI50 (M14) | GI50 (NCI-H23) | GI50 (NCI-H522) | GI50 (SF-268) | GI50 (SF-539) | GI50 (SW-620) | GI50 (UACC-257) | GI50 (NCI/ADR-RES) | GI50 (T47D)
1 | CCCCCN(CCCCC)C(=O)[C@@H](CCC(=O)O)NC(=O)c1cc2ccccc2[nH]1 | 46.5 µM (inactive) | 39.3 µM (inactive) | 48.1 µM (inactive) | 34 µM (inactive) | 17.9 µM (inactive) | 37.7 µM | 24.1 µM (inactive) | 25.6 µM (inactive) | 46.6 µM (inactive) | 36.5 µM (inactive) | 59.3 µM (inactive) | 23.2 µM (inactive) | 22.8 µM (inactive) | 13.5 µM (inactive) | 24.5 µM (inactive) | 22.3 µM (inactive) | 63.1 µM (inactive) | 49.4 µM (inactive) | – | –
2 | Cn1ncc2c(NCc3ccccc3)ncnc21 | > 100 µM (inactive) | > 100 µM (inactive) | > 100 µM (inactive) | > 100 µM (inactive) | > 100 µM (inactive) | > 100 µM | > 100 µM (inactive) | – | > 100 µM (inactive) | > 100 µM (inactive) | > 100 µM (inactive) | – | > 100 µM (inactive) | – | > 100 µM (inactive) | > 100 µM (inactive) | > 100 µM (inactive) | > 100 µM (inactive) | > 100 µM (inactive) | > 100 µM (inactive)
3 | CCCCC(C)C(OC(=O)CC(CC(=O)O)C(=O)O)C(CC(C)CC(O)CCCCC(O)CC(O)C(C)N)OC(=O)CC(CC(=O)O)C(=O)O (centres undefined) | > 100 µM (inactive) | > 100 µM (inactive) | > 100 µM (inactive) | > 100 µM (inactive) | > 100 µM (inactive) | > 100 µM | > 69.8 µM (inactive) | > 65.8 µM (inactive) | > 100 µM (inactive) | > 100 µM (inactive) | > 100 µM (inactive) | > 100 µM (inactive) | > 100 µM (inactive) | > 100 µM (inactive) | > 100 µM (inactive) | > 100 µM (inactive) | > 100 µM (inactive) | > 100 µM (inactive) | – | –
4 | Cc1cn(C2CC(n3cc(Cn4cc(F)c(=O)[nH]c4=O)nn3)C(CO)O2)c(=O)[nH]c1=O (centres undefined) | > 100 µM (inactive) | > 100 µM (inactive) | > 100 µM (inactive) | > 100 µM (inactive) | > 100 µM (inactive) | > 100 µM | 43.7 µM (inactive) | > 100 µM (inactive) | – | – | > 100 µM (inactive) | > 100 µM (inactive) | > 100 µM (inactive) | – | > 100 µM (inactive) | > 100 µM (inactive) | > 100 µM (inactive) | > 100 µM (inactive) | > 100 µM (inactive) | > 100 µM (inactive)
5 | N#CCC(=O)NC1C2CC3CC(C2)CC1C3 (centres undefined) | 19.5 µM (inactive) | 34 µM (inactive) | 18.9 µM (inactive) | 18 µM (inactive) | 15.2 µM (inactive) | 17.2 µM | 22.8 µM (inactive) | 18.3 µM (inactive) | 18.5 µM (inactive) | 26.5 µM (inactive) | 10.7 µM (inactive) | 19.9 µM (inactive) | 16.6 µM (inactive) | 17.1 µM (inactive) | 17.7 µM (inactive) | 18 µM (inactive) | 25.4 µM (inactive) | 20.9 µM (inactive) | – | –
6 | O=c1[nH]c(=O)n(COCCO)c2ccc(Br)cc12 | > 100 µM (inactive) | > 100 µM (inactive) | 92.3 µM (inactive) | – | > 100 µM (inactive) | 45.9 µM | > 100 µM (inactive) | > 100 µM (inactive) | > 100 µM (inactive) | > 100 µM (inactive) | > 100 µM (inactive) | > 100 µM (inactive) | – | – | – | > 100 µM (inactive) | > 100 µM (inactive) | > 100 µM (inactive) | > 100 µM (inactive) | –
7 | CCOC(=O)c1cc2cc(Cc3ccc4[nH]c(C(=O)OCC)cc4c3)ccc2[nH]1 | 2.86 µM (inactive) | – | 21.5 µM (inactive) | 91.6 µM (inactive) | 38.5 µM (inactive) | > 100 µM | 9.35 µM (inactive) | 12.3 µM (inactive) | 35.4 µM (inactive) | 21.9 µM (inactive) | 38.7 µM (inactive) | > 100 µM (inactive) | 14.7 µM (inactive) | – | 13.5 µM (inactive) | 13.7 µM (inactive) | 63.5 µM (inactive) | 43.6 µM (inactive) | 13.4 µM (inactive) | 32.4 µM (inactive)
8 | O=c1ncccn1[C@@H]1O[C@H](CO)[C@H](O)C1O (some centres undefined) | > 78 µM (inactive) | > 89.5 µM (inactive) | > 100 µM (inactive) | 40.9 µM (inactive) | > 70.8 µM (inactive) | > 93.1 µM | 47.3 µM (inactive) | > 71.3 µM (inactive) | > 95.1 µM (inactive) | 52.4 µM (inactive) | > 61.8 µM (inactive) | > 100 µM (inactive) | > 100 µM (inactive) | > 88.5 µM (inactive) | 71.8 µM (inactive) | > 75.3 µM (inactive) | > 100 µM (inactive) | > 100 µM (inactive) | – | –
